# Data published in patent publication US6335371B1, “Method for inducing cognition enhancement” (Orion Corporation, priority 2000, dated 2002).
# Experiments:
# [1] = Randomised placebo-controlled double-blind study, Udvalg for Kliniske Undersogelser (UKU) scale, concentration difficulties; assay type: in vivo; details: 5, 15, 30 mg b.i.d
# Experimental: (§1) The cognition enhancement properties of deramciclane were studied in a randomised placebo-controlled double-blind study. The subjects were randomly assigned to four parallel groups to receive one tablet twice daily (b.i.d) of a placebo, 5 mg (=10 mg/day), 15 mg (=30 mg/day), or 30 mg (=60 mg/day) deramciclane. The study started with a one-week placebo run-in period, followed by an eight-week placebo-controlled active treatment and a two-week placebo washout period.
# (§2) The efficacy of deramciclane on cognition enhancement was studied using the cognitive part of Hamilton Anxiety Scale (HAM-A) which consists of the concentration and memory items. Cognition enhancement was also assessed using Udvalg for Kliniske Undersogelser (UKU) scale.
# [2] = Randomised placebo-controlled double-blind study, cognitive part of Hamilton Anxiety Scale (HAM-A; concentration and memory items); assay type: in vivo
# Experimental: as §1, §2
structure (smiles),measurement,setting,value
"CN(C)CCO[C@]1(c2ccccc2)C[C@H]2CC[C@]1(C)C2(C)C [deramciclane, (1R,2S,4R)-(−)-2-phenyl 2-(dimethylaminoethoxy)-1,7,7-trimethyl-bicyclo[2.2.1]heptane]","Trend analysis (dose-response relationship), concentration difficulties, UKU-scale",[1],statistically significant positive correlation
same,"HAM-A Intellectual, cognitive: subjects rated Mild, number (%)","[2]; After 8 weeks, 5 mg b.i.d",20 (47%)
same,"HAM-A Intellectual, cognitive: subjects rated Moderate, number (%)","[2]; After 8 weeks, 5 mg b.i.d",6 (14%)
same,"HAM-A Intellectual, cognitive: subjects rated Not Present, number (%)","[2]; After 8 weeks, 5 mg b.i.d",15 (35%)
same,"HAM-A Intellectual, cognitive: subjects rated Severe, number (%)","[2]; After 8 weeks, 5 mg b.i.d",2 (5%)
same,"HAM-A Intellectual, cognitive: subjects rated Mild, number (%)","[2]; After 8 weeks, 15 mg b.i.d.",19 (43%)
same,"HAM-A Intellectual, cognitive: subjects rated Moderate, number (%)","[2]; After 8 weeks, 15 mg b.i.d.",3 (7%)
same,"HAM-A Intellectual, cognitive: subjects rated Not Present, number (%)","[2]; After 8 weeks, 15 mg b.i.d.",21 (48%)
same,"HAM-A Intellectual, cognitive: subjects rated Severe, number (%)","[2]; After 8 weeks, 15 mg b.i.d.",1 (2%)
same,"HAM-A Intellectual, cognitive: subjects rated Mild, number (%)","[2]; After 8 weeks, 30 mg b.i.d.",14 (30%)
same,"HAM-A Intellectual, cognitive: subjects rated Moderate, number (%)","[2]; After 8 weeks, 30 mg b.i.d.",10 (22%)
same,"HAM-A Intellectual, cognitive: subjects rated Not Present, number (%)","[2]; After 8 weeks, 30 mg b.i.d.",22 (48%)
same,"HAM-A Intellectual, cognitive: subjects rated Severe, number (%)","[2]; After 8 weeks, 30 mg b.i.d.",0
same,"HAM-A Intellectual, cognitive: subjects rated Mild, number (%)","[2]; Baseline, 5 mg b.i.d group",17 (31%)
same,"HAM-A Intellectual, cognitive: subjects rated Moderate, number (%)","[2]; Baseline, 5 mg b.i.d group",33 (61%)
same,"HAM-A Intellectual, cognitive: subjects rated Not Present, number (%)","[2]; Baseline, 5 mg b.i.d group",3 (6%)
same,"HAM-A Intellectual, cognitive: subjects rated Severe, number (%)","[2]; Baseline, 5 mg b.i.d group",1 (2%)
same,"HAM-A Intellectual, cognitive: subjects rated Mild, number (%)","[2]; Baseline, 15 mg b.i.d. group",12 (24%)
same,"HAM-A Intellectual, cognitive: subjects rated Moderate, number (%)","[2]; Baseline, 15 mg b.i.d. group",35 (69%)
same,"HAM-A Intellectual, cognitive: subjects rated Not Present, number (%)","[2]; Baseline, 15 mg b.i.d. group",3 (6%)
same,"HAM-A Intellectual, cognitive: subjects rated Severe, number (%)","[2]; Baseline, 15 mg b.i.d. group",1 (2%)
same,"HAM-A Intellectual, cognitive: subjects rated Mild, number (%)","[2]; Baseline, 30 mg b.i.d. group",15 (28%)
same,"HAM-A Intellectual, cognitive: subjects rated Moderate, number (%)","[2]; Baseline, 30 mg b.i.d. group",28 (53%)
same,"HAM-A Intellectual, cognitive: subjects rated Not Present, number (%)","[2]; Baseline, 30 mg b.i.d. group",3 (6%)
same,"HAM-A Intellectual, cognitive: subjects rated Severe, number (%)","[2]; Baseline, 30 mg b.i.d. group",7 (13%)
same,Effect on cognition measured by the cognitive part of the HAM-A,"[2]; eight-week treatment, 5, 15 or 30 mg b.i.d",improved the cognition
